Experimental data from PMC9749936, “Synthesis and structure–activity relationship studies of N-terminal analogues of the lipopeptide antibiotics brevicidine and laterocidine” (RSC Medicinal Chemistry, 2022).
Bridge positions count the residues as written; N and C are the ends. Square brackets hold non-standard residues; d marks the D form. Peptide text beside a SMILES is read from it. * marks the point of attachment. Palmitoyl = CCCCCCCCCCCCCCCC(=O)*; Lauroyl = CCCCCCCCCCCC(=O)*; Decanoyl = CCCCCCCCCC(=O)*; dOrn = NCCC[C@@H](N)C(=O)O; Orn = NCCC[C@H](N)C(=O)O; Hexanoyl = CCCCCC(=O)*; Butyryl = CCCC(=O)*

Columns and labels:
P. aeruginosa PAO1 = assay type: cell-based, Pseudomonas aeruginosa; conditions: PAO1, 18 h
Method in brief: (§1)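 Broth microdilution MIC per CLSI guidelines in MHB, with compound from DMSO stocks serially diluted in polypropylene plates.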

E. coli ATCC 25922 = assay type: cell-based, Escherichia coli; conditions: ATCC 25922, 18 h
Method in brief: as §1

Sheep red blood cells = assay type: cell-based; conditions: red cells of sheep, 1 h, 64 μg mL^−1
S. aureus USA300 = assay type: cell-based, Staphylococcus aureus; conditions: USA300, 18 h
Method in brief: as §1

A. baumannii ATCC 17961 = assay type: cell-based, Acinetobacter baumannii; conditions: ATCC 17961, 18 h
Method in brief: as §1

K. pneumoniae ATCC 13883 = assay type: cell-based, Klebsiella pneumoniae; conditions: ATCC 13883, 18 h
Method in brief: as §1

E. coli ATCC 25922 MCR-1 = assay type: cell-based, Escherichia coli; conditions: colistin-resistant strain carrying mcr-1; CLSI broth microdilution in MHB, 18 h at 37 °C, visual inspection; three technical replicates

| SMILES | Antimicrobial activity (MIC) P. aeruginosa PAO1 (P. aeruginosa PAO1) [µg/mL] | Antimicrobial activity (MIC) E. coli ATCC 25922 (E. coli ATCC 25922) [µg/mL] | % Hemolytic activity, sheep red blood cells (Sheep red blood cells) [%] | Antimicrobial activity (MIC) S. aureus USA300 (S. aureus USA300) [µg/mL] | Antimicrobial activity (MIC) A. baumannii ATCC 17961 (A. baumannii ATCC 17961) [µg/mL] | Antimicrobial activity (MIC) K. pneumoniae ATCC 13883 (K. pneumoniae ATCC 13883) [µg/mL] | Antimicrobial activity (MIC) E. coli ATCC 25922 MCR-1 (E. coli ATCC 25922 MCR-1) [µg/mL] |
| --- | --- | --- | --- | --- | --- | --- | --- |
| CC[C@H](C)[C@@H]1NC(=O)[C@@H](NC(=O)[C@H](Cc2c[nH]c3ccccc23)NC(=O)[C@@H](CCCN)NC(=O)CNC(=O)[C@H](CCCN)NC(=O)[C@@H](CCCN)NC(=O)[C@@H](Cc2c[nH]c3ccccc23)NC(=O)[C@@H](Cc2ccc(O)cc2)NC(=O)[C@@H](CO)NC(C)=O)[C@@H](C)OC(=O)CNC(=O)CNC(=O)[C@H](CC(N)=O)NC1=O [Compound 19] (Ac-[dS][dY][dW][dOrn][Orn]G[dOrn]WTINGG; ester 9-C) | 16 | >32 | 0.2 | >32 | >32 | >32 | >32 |
| CCCC(=O)N[C@H](CO)C(=O)N[C@H](Cc1ccc(O)cc1)C(=O)N[C@H](Cc1c[nH]c2ccccc12)C(=O)N[C@H](CCCN)C(=O)N[C@@H](CCCN)C(=O)NCC(=O)N[C@H](CCCN)C(=O)N[C@@H](Cc1c[nH]c2ccccc12)C(=O)N[C@@H]1C(=O)N[C@@H]([C@@H](C)CC)C(=O)N[C@@H](CC(N)=O)C(=O)NCC(=O)NCC(=O)O[C@@H]1C [Compound 20] (Butyryl-[dS][dY][dW][dOrn][Orn]G[dOrn]WTINGG; ester 9-C) | 8 | 16 | 0.3 | >32 | >32 | 32 | 32 |
| CCCCCC(=O)N[C@H](CO)C(=O)N[C@H](Cc1ccc(O)cc1)C(=O)N[C@H](Cc1c[nH]c2ccccc12)C(=O)N[C@H](CCCN)C(=O)N[C@@H](CCCN)C(=O)NCC(=O)N[C@H](CCCN)C(=O)N[C@@H](Cc1c[nH]c2ccccc12)C(=O)N[C@@H]1C(=O)N[C@@H]([C@@H](C)CC)C(=O)N[C@@H](CC(N)=O)C(=O)NCC(=O)NCC(=O)O[C@@H]1C [Compound 21] (Hexanoyl-[dS][dY][dW][dOrn][Orn]G[dOrn]WTINGG; ester 9-C) | 4 | 4 | 0.2 | >32 | 16 | 8 | 8 |
| CCCCCCCCCC(=O)N[C@H](CO)C(=O)N[C@H](Cc1ccc(O)cc1)C(=O)N[C@H](Cc1c[nH]c2ccccc12)C(=O)N[C@H](CCCN)C(=O)N[C@@H](CCCN)C(=O)NCC(=O)N[C@H](CCCN)C(=O)N[C@@H](Cc1c[nH]c2ccccc12)C(=O)N[C@@H]1C(=O)N[C@@H]([C@@H](C)CC)C(=O)N[C@@H](CC(N)=O)C(=O)NCC(=O)NCC(=O)O[C@@H]1C [Compound 23] (Decanoyl-[dS][dY][dW][dOrn][Orn]G[dOrn]WTINGG; ester 9-C) | 2 | 2 | 2.1 | >32 | 2 | 2 to 4 | 2 |
| CCCCCCCCCCCC(=O)N[C@H](CO)C(=O)N[C@H](Cc1ccc(O)cc1)C(=O)N[C@H](Cc1c[nH]c2ccccc12)C(=O)N[C@H](CCCN)C(=O)N[C@@H](CCCN)C(=O)NCC(=O)N[C@H](CCCN)C(=O)N[C@@H](Cc1c[nH]c2ccccc12)C(=O)N[C@@H]1C(=O)N[C@@H]([C@@H](C)CC)C(=O)N[C@@H](CC(N)=O)C(=O)NCC(=O)NCC(=O)O[C@@H]1C [Compound 24] (Lauroyl-[dS][dY][dW][dOrn][Orn]G[dOrn]WTINGG; ester 9-C) | 8 | 4 | 21.5 | 32 | 2 | 8 | 4 |
| CCCCCCCCCCCCCCCC(=O)N[C@H](CO)C(=O)N[C@H](Cc1ccc(O)cc1)C(=O)N[C@H](Cc1c[nH]c2ccccc12)C(=O)N[C@H](CCCN)C(=O)N[C@@H](CCCN)C(=O)NCC(=O)N[C@H](CCCN)C(=O)N[C@@H](Cc1c[nH]c2ccccc12)C(=O)N[C@@H]1C(=O)N[C@@H]([C@@H](C)CC)C(=O)N[C@@H](CC(N)=O)C(=O)NCC(=O)NCC(=O)O[C@@H]1C [Compound 26] (Palmitoyl-[dS][dY][dW][dOrn][Orn]G[dOrn]WTINGG; ester 9-C) | 32 | 32 | 46.1 | 32 | 4 | >32 | 32 |
